Read-outs that look alike come from different tables or passages of the source.
Assays:
[1] = ref Merck 2003; cited from earlier work
UGT2B7 = target: T1, UGT2B7 (Homo sapiens, UniProt P16662); assay: Ki determination of aprepitant on 4-MU-G, M-6-G and AZT-G formation in UGT2B7
T1 sequence (P16662 24-529): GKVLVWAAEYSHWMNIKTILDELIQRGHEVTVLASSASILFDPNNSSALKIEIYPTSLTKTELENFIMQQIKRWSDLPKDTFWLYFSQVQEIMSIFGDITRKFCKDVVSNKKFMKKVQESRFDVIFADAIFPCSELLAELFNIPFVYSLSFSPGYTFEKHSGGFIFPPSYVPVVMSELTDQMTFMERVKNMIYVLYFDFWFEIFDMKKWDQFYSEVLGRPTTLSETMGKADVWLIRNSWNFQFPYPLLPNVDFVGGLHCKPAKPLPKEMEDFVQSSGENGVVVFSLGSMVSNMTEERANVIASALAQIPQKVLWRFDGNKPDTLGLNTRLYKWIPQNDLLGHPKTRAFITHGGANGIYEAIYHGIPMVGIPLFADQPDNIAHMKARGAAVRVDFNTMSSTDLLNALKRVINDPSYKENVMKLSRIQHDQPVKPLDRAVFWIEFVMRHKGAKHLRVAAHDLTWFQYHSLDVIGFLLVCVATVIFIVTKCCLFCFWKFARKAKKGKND

in vitro = conditions: human, microsomes, pH 7.5
[2] = tested on: UGTs in human intestinal microsomes (HIM); assay: in vitro; conditions: pH 7.5
UGT1A10 = target: T2, UGT1A10 (Homo sapiens, UniProt Q9HAW8); assay: Screening for aprepitant glucuronidation, UGT1A10 Supersomes; type: in vitro ADME; conditions: UGT1A10, 5 and 250 µM aprepitant
T2 sequence (Q9HAW8 26-530): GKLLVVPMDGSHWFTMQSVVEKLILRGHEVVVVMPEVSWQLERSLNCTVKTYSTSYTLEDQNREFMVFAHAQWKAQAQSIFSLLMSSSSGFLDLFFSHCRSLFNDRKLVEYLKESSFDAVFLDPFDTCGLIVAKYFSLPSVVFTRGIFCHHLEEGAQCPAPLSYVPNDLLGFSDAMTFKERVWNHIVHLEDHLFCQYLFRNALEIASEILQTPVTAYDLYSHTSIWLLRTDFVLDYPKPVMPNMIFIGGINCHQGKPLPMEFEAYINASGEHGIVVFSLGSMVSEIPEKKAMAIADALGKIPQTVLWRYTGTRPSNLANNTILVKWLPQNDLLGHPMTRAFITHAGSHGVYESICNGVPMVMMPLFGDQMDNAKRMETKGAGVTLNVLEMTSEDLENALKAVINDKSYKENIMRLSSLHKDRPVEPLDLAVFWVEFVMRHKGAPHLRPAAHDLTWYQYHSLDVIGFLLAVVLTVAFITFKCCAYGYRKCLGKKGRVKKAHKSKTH

UGT1A4 = target: T3, UGT1A4 (Homo sapiens, UniProt P22310); conditions: pH 7.5; for velocity of AP-G formation: 60 min
T3 sequence (P22310 29-534): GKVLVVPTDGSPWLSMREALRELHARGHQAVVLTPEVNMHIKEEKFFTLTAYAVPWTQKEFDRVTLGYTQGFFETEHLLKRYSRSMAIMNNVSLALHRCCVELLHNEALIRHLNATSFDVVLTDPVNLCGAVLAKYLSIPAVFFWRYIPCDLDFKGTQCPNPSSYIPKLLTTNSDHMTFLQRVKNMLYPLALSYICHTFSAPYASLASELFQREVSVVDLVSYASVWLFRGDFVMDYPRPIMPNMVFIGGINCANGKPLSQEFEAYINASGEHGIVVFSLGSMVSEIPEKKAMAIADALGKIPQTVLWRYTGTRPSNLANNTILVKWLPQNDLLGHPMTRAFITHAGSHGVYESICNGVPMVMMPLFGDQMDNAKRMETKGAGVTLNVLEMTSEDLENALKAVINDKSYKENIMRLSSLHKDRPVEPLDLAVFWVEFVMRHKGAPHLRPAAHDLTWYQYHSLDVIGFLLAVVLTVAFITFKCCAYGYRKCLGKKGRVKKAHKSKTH

UGT2B17 = target: T4, UGT2B17 (Homo sapiens, UniProt O75795); assay: Screening for aprepitant glucuronidation, UGT2B17 Supersomes; type: in vitro ADME; conditions: UGT2B17, 5 and 250 µM aprepitant
T4 sequence (O75795 24-530): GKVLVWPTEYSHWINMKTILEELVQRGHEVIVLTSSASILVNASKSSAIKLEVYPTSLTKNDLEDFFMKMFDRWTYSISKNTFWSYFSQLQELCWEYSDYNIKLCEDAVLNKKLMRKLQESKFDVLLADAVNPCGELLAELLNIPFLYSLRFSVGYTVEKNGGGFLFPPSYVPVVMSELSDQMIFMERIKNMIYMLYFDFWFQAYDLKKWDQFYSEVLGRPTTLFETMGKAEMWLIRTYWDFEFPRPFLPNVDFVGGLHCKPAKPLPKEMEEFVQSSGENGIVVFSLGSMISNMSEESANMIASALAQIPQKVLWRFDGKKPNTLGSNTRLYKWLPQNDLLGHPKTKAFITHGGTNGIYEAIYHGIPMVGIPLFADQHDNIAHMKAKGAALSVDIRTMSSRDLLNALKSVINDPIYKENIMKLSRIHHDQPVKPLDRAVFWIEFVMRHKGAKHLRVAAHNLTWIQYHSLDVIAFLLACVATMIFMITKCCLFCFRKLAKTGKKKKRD

inhibition model (UGT2B7; UGT2B7, substrate 4-MU): competitive inhibition model
inhibition model (UGT2B7; UGT2B7, substrate AZT): competitive inhibition model
inhibition model (UGT2B7; UGT2B7, substrate morphine): noncompetitive model
microsomal CLint (in vitro): 5600 µL/min/mg
Km at 60 min [2]: 63 ± 5 µM
AP-G formation (UGT1A10): not detected
velocity of AP-G formation (UGT1A4; 5 µM): 124.6 ± 6.4 fmol/min/mg protein
velocity of AP-G formation (UGT1A4; 250 µM): 2,710 ± 157.2 fmol/min/mg protein
CLint (UGT1A4; recombinant enzyme): 28 µl/min/µg protein
AP-G formation (UGT2B17): not detected
SMILES: C[C@@H](O[C@H]1OCCN(Cc2n[nH]c(=O)[nH]2)[C@H]1c1ccc(F)cc1)c1cc(C(F)(F)F)cc(C(F)(F)F)c1 [aprepitant, Aprepitant]
mean absolute oral bioavailability [1]: 60–65%
